The source of these data is US20160361314A1, “COMBINATION OF AN ALK INHIBITOR AND A CDK INHIBITOR FOR THE TREATMENT OF CELL PROLIFERATIVE DISEASES” (NOVARTIS AG, priority 2013, published 2016).

The structures appear in SMILES notation. “Also recorded” adds a separate entry of the source.

What all share (assay type): cell-based
The test system of experiment [1] is LAN-1 human neuroblastoma cells. The experiment can be described thus: Loewe additivity (CHALICE) synergy screen, CellTiter-Glo viability, 7x7 dose matrix. Set-up: key to Synergy score (Mean): Loewe excess inhibition synergy score; >0 synergistic; key to Max Combo Effect: growth inhibition scale; 100 = stasis. The conditions noted are these: LAN-1 (F1174L). The procedure:
(§1) The synergistic interaction of drug combinations were assessed based on the Loewe Additivity Model using Chalice software [CombinatoRx, Cambridge Mass.]). […] 27:659-66. The software compares the response (% inhibition or % reduction of cell viability) of drug treatment from a combination of two agents to the response of the agents acting alone, against the drug-with-itself dose-additive reference model (the Loewe Additivity Model). Deviations from dose additives can be assessed numerically with a “synergy score” which quantifies the overall strength of combination effect. A synergy score >0 indicates a synergistic combination. In order to ensure only strongly synergistic combinations were selected, the acceptance criteria were set at a higher level. Strongly synergistic combinations were defined as having both a synergy score >2, a synergy score that is twice as large as the background (non-synergy) model would predict, and a maximum efficacy of >100, a value equivalent to stasis, as determined from the growth inhibition calculation.
(§2) After treatment, cell viabilty (quantity of viable cells) for each test mixtures were determined by the CellTiter-Glo® (CTG) luminescent cell viability assay (Promega) described in the Assay section, infra. […] The response to treatment (% reduction of cell viability) was analyzed using Chalice software [CombinatoRx, Cambridge Mass.]). Data evaluation and graph generation were performed using Microsoft Excel software and Chalice software.
The % inhibition (reduction in cell viability) by the drug treatments were recorded in the block In the dose matrix (left); the single agent treatment at the far left column and the bottom row, and the combinations in the remaining 6x6 combination blocks. The differences between the data in the dose matrix and the expected inhibition value generated by the Loewe model were reported in the Loewe Excess matrix. In this Excess Inhibition matrix, synergy is defined as values>0; that is inhibition greater than what would be expected from a simple additive interaction. Antagonism is defined as values<0; that is inhibition […] than what would be expected from a simple additive interaction. The synergy score for the drug treatments were computed taken into account of the entire 6×6 combination blocks within the matrix.
(§3) The combinations were tested in duplicate using a 7×7 dose matrix block in 1536 well format with a cell proliferation readout as described in the Assay section infra.
(§4) All synergy calculations were performed using CHALICE software package from Zalicus and potential synergistic interactions between compound combinations were assessed using the Excess Inhibition 2D matrix according to the Loewe additivity model and were reported as synergy score (Table 10) (Lehar et al). Strongly synergistic combination were identified as having both (1) a synergy score greater than 2, a synergy score that is twice as large as the background (non-synergy) model would predict, and (2) a maximum efficacy of >100, a value roughly equivalent to stasis, as determined from the growth inhibition calculation.
(§5) Cell viability were determined by measuring cellular ATP content using the CellTiter-Glo® (CTG) luminescent cell viability assay (Promega). […] Reduced and enhanced luminescent signal values (responses) were calculated relative to untreated (control) cells, and the calculated signal value proportional to the cell viability.
(§6) Synergistic combinations were identified based on the Loewe Addivity Model.

For experiment [2], the system named is CHP-134 human neuroblastoma cells. The description is as above. Set-up: key to Max Combo Effect: growth inhibition scale; 100 = stasis. The conditions noted are these: for Max Combo Effect: in % (unit assumed). The procedure:
as §1, §2, §3, §4, §5
(§7) Synergistic combinations were identified based on the Loewe Addivity Model. To measure the effects of drug combinations on the cell viability, cells from the 20 cell lines listed in Table 1 above were seeded into 1536-well assay plates at a density 300 cells per well in a 7 μL final volume and incubated at 37° C. overnight in a GNF Systems incubator with 95% RH and 5% CO2.
(§8) A six-point dose response curve for the test compounds were prepared in a 384 well ECHO compatible source plate (Labcyte P-05525) with 3-fold serial dilution series. For example, for a six-point dose response curve and a top compound concentration of 5 mM, the concentration of the compounds in the source well were 5 mM, 1.67 mM, 0.56 mM, 0.19 mM, 0.06 mM and 0.02 mM.
(§9) Approximately 18 hours after plating, compound combinations were generated on the fly by transferring 7.5 nL of compound from the pre-diluted source plates using the Labcyte ECHO555 integrated onto the ACP-1 system with replicate plates per cell line; the final DMSO concentration per well was 0.2%. It is noted that the total volume in the wells was 7 μL.
(§10) The well at the intersection of the first column and first row which received no compound was dosed with 2×7.5 nL of DMSO and served as control.

Experiment [3] relates to KELLY human neuroblastoma cells. Described as above. The conditions noted are these: KELLY (F1174L). Set-up: key to Max Combo Effect: growth inhibition scale; 100 = stasis. As to the method: as §1, §2, §3, §4, §5, §7, §8, §9, §10
Experiment [4] concerns LAN-5 human neuroblastoma cells. The description is as above. Set-up: key to Max Combo Effect: growth inhibition scale; 100 = stasis. The note with it: LAN-5 (R1275Q). The procedure:
as §1, §2, §3, §4, §5, §7, §8, §9, §10

The subject of experiment [5] is NB-SD human neuroblastoma cells. The description is as above. Set-up: key to Max Combo Effect: growth inhibition scale; 100 = stasis. The conditions noted are these: NB-SD (F1174L); for Max Combo Effect: in % (unit assumed). The procedure: as §1, §2, §3, §4, §5, §7, §8, §9, §10
The test system of experiment [6] is SK-N-AS human neuroblastoma cells. The experiment is described as above. More on the design: key to Max Combo Effect: growth inhibition scale; 100 = stasis. The note with it: SK-N-AS (WT); for Max Combo Effect: in % (unit assumed). The procedure: as §1, §2, §3, §4, §5, §7, §8, §9, §10
Experiment [7] concerns SK-N-BE(2) human neuroblastoma cells. The experiment is described as above. More on the design: key to Max Combo Effect: growth inhibition scale; 100 = stasis. The note with it: SK-N-BE(2) (WT). As to the method:
as §1, §2, §3, §4, §5, §7, §8, §9, §10

Experiment [8] relates to panel of human neuroblastoma cell lines (ALK mutant and wild type). The experiment can be described thus: Loewe additivity (CHALICE) synergy screen, results over the whole panel. The conditions noted are these: for Mean of synergy scores over the cell lines / Median of synergy scores over the cell lines: 15 cell lines of Table 2; for Single-agent efficacy over the panel (self-cross scatter plots): Example A, FIGS. 4A, 4B, 15 cell lines; for Efficacy and synergy over the panel (scatter plots): Example G, FIG. 21, 16 cell lines. The procedure:
as §1, §2
The statistical variation of the synergy scores tabulated in Tables 2 and 3 were graphically illustrated by a Box Plot (FIG. 3). […] The ALK×ALK and CDK4/6×CDK4/6 combination is moderately sygergistic with synergy score at 1.011 (sd=0.4) and 1.16 (sd=0.43), respectively. In ALK normal cells, the combinations and the self-cross treatments were not sygeristic with synergistic score of about 0.5, but similarly large standard deviations.
For visual identification for strongly synergistic compositions, the data in Tables 2 and 3 were presented in scatter plots (FIGS. 4 A-C) where maximum combination efficacy were plotted against the synergy scores. Only data from two of the three ALK inhibitors, compounds A1 and A2 were included. In a scatter plot, a vertical shift implies additive effect; a right shift implies synergistic interactions and a diagonal shift implies synergy with a boost in efficacy. Synergistic combination hits are those in the upper right quadrant where the synergy score is >2 and the maximum efficacy is >100.
as §3, §4, §5, §6

On to `Cc1cc(Nc2ncc(Cl)c(Nc3ccccc3S(=O)(=O)C(C)C)n2)c(OC(C)C)cc1C1CCNCC1` [Compound A1, 5-chloro-N2-(2-isopropoxy-5-methyl-4-(piperidin-4-yl)phenyl)-N4-[2-(propane-2-sulfonyl)-phenyl]-pyrimidine-2,4-diamine], for which the “Max Combo Effect” value in experiment [1] (Table 2) is 114.2; in experiment [2] (CHP-134 (ALK WT), Table 2) it was 26.1; in experiment [3] (Table 2), 97.7; in experiment [4] (Table 2), 166.1; in experiment [5] (Table 2) it was 141.5; in experiment [6] (Table 2) it was 42.4. In addition, the “Max Combo Effect” value in experiment [7] (Table 2) is on record as 25.2. In addition, the “Synergy score (Mean)” value in experiment [1] (Table 2, listed as Cmpd A1 Self Cross) came out at 1.011; in experiment [1] (Table 2, listed as Cpd A1×A1), 1.01; in experiment [2] (CHP-134 (ALK WT), Table 2) it was 0.223; in experiment [3] (Table 2) it was 0.900; in experiment [4] (Table 2), 1.731; in experiment [5] (Table 2), 0.908. Also, the “Synergy score (Mean)” value in experiment [6] (Table 2) was found to be 0.374; in experiment [7] (Table 2), 0.246. Further, in experiment [8], the “Mean of synergy scores over the cell lines” value is recorded as 0.841. In experiment [8], the “Median of synergy scores over the cell lines” value is reported as 0.884. In addition, the “Single-agent efficacy over the panel (self-cross scatter plots)” value (“Single-agent efficacy over the panel” for short) in experiment [8] is given as “preferential single-agent efficacy for the ALK disease cell lines over the ALK normal cell lines”. Besides, the “Efficacy and synergy over the panel (scatter plots)” value in experiment [8] is listed as “preferential single agent efficacy for the ALK Disease subset of cell lines over the ALK WT cell lines”.
As for `Cc1cc(Nc2nc(Nc3ccccc3S(=O)(=O)C(C)C)c3cn[nH]c3n2)c(OC(C)C)cc1C1CCN(C)CC1` [Compound A2, N6-(2-isopropoxy-5-methyl-4-(1-methylpiperidin-4-yl)phenyl)-N4-(2-(isopropylsulfonyl)phenyl)-1H-pyrazolo[3,4-d]pyrimidine-4,6-diamine], the “Synergy score (Mean)” value in experiment [2] (CHP-134 (WT), Table 3) was found to be 0.10; in experiment [3] (Table 3) it was 0.64; in experiment [4] (Table 3), 0.87; in experiment [5] (Table 3), 1.38; in experiment [6] (Table 3) it was 0.20; in experiment [7] (Table 3) it was 0.47. The “Max Combo Effect” value in experiment [2] (CHP-134 (WT), Table 3) was found to be 180.10; in experiment [3] (Table 3), 191.61; in experiment [4] (Table 3), 196.81; in experiment [5] (Table 3), 195.92; in experiment [6] (Table 3) it was 61.99; in experiment [7] (Table 3) it was 177.26. Besides, in experiment [8], the “Single-agent efficacy over the panel” value is “preferential single-agent efficacy for the ALK disease cell lines over the ALK normal cell lines”.
As to `C[C@@H](Oc1cc(-c2cnn(C3CCNCC3)c2)cnc1N)c1c(Cl)ccc(F)c1Cl` [Compound A3, (R)-3-(1-(2,6-dichloro-3-fluorophenyl)ethoxy)-5-(1-(piperidin-4-yl)-1H-pyrazol-4-yl)pyridin-2-amine, reference compound], the “Max Combo Effect” value was found to be 77.73 in experiment [1] (Table 3); 10.05 in experiment [2] (CHP-134 (WT), Table 3); 134.74 in experiment [3] (Table 3); 75.54 in experiment [5] (Table 3); 55.78 in experiment [6] (Table 3); 10.76 in experiment [7] (Table 3). Besides, the “Synergy score (Mean)” value was 0.63 in experiment [1] (Table 3); 0.02 in experiment [2] (CHP-134 (WT), Table 3); 0.47 in experiment [3] (Table 3); 0.84 in experiment [5] (Table 3); 0.19 in experiment [6] (Table 3); 0.02 in experiment [7] (Table 3).
For `CN(C)C(=O)c1cc2cnc(Nc3ccc(N4CCNCC4)cn3)nc2n1C1CCCC1` [Compound B, 7-cyclopentyl-N,N-dimethyl-2-((5-(piperazin-1-yl)pyridin-2-yl)amino)-7H-pyrrolo[2,3-d]pyrimidine-6-carboxamide], the “Max Combo Effect” value is 142.3 in experiment [1] (Table 2); 62.78 in experiment [1] (Table 3); 52.3 in experiment [2] (CHP-134 (ALK WT), Table 2); 48.76 in experiment [2] (CHP-134 (WT), Table 3); 60.5 in experiment [3] (Table 2); 27.66 in experiment [3] (Table 3). The “Max Combo Effect” value in experiment [4] (Table 2) is 99.2; in experiment [4] (Table 3), 73.59; in experiment [5] (Table 2), 98.6; in experiment [5] (Table 3), 61.5; in experiment [6] (Table 2) it was 64.7; in experiment [7] (Table 2), 75.2. In addition, in experiment [7] (Table 3), the “Max Combo Effect” value stood at 93.3. The “Synergy score (Mean)” value in experiment [1] (Table 3) is 0.25; in experiment [2] (CHP-134 (ALK WT), Table 2), 0.388; in experiment [2] (CHP-134 (WT), Table 3), 0.35; in experiment [3] (Table 2), 0.255; in experiment [3] (Table 3) it was 0.19; in experiment [4] (Table 2), 1.161. Further, the “Synergy score (Mean)” value in experiment [4] (Table 3) amounted to 0.57; in experiment [5] (Table 2), 1.476; in experiment [5] (Table 3), 0.97; in experiment [6] (Table 2), 0.503; in experiment [6] (Table 3), 0.48; in experiment [7] (Table 2) it was 0.628. Moreover, the “Synergy score (Mean)” value in experiment [7] (Table 3) was found to be 1.41. For the same molecule, in experiment [8], the “Mean of synergy scores over the cell lines” value is reported as 0.757. For the same molecule, the “Median of synergy scores over the cell lines” value in experiment [8] was 0.788. In experiment [8], the “Single-agent efficacy over the panel” value was “single-agent efficacy (>100) in two disease cell lines and one normal cell line; also recorded: minimal single agent efficacy or synergy”. Also, the “Efficacy and synergy over the panel (scatter plots)” value in experiment [8] is “no single agent efficacy in any of the cell lines tested”.
